ChEMBL document CHEMBL3232739, “Discovery of a potent and dissociated non-steroidal glucocorticoid receptor agonist containing an alkyl carbinol pharmacophore” (Bioorg Med Chem Lett, 2014)

Experiments:
Progesterone receptor = molecular target: T1, Progesterone receptor (Homo sapiens, UniProt P06401); assay: Displacement of TAMRA-labeled mifepristone from progesterone receptor (unknown origin) by fluorescence polarization assay
T1 sequence (P06401 whole entry): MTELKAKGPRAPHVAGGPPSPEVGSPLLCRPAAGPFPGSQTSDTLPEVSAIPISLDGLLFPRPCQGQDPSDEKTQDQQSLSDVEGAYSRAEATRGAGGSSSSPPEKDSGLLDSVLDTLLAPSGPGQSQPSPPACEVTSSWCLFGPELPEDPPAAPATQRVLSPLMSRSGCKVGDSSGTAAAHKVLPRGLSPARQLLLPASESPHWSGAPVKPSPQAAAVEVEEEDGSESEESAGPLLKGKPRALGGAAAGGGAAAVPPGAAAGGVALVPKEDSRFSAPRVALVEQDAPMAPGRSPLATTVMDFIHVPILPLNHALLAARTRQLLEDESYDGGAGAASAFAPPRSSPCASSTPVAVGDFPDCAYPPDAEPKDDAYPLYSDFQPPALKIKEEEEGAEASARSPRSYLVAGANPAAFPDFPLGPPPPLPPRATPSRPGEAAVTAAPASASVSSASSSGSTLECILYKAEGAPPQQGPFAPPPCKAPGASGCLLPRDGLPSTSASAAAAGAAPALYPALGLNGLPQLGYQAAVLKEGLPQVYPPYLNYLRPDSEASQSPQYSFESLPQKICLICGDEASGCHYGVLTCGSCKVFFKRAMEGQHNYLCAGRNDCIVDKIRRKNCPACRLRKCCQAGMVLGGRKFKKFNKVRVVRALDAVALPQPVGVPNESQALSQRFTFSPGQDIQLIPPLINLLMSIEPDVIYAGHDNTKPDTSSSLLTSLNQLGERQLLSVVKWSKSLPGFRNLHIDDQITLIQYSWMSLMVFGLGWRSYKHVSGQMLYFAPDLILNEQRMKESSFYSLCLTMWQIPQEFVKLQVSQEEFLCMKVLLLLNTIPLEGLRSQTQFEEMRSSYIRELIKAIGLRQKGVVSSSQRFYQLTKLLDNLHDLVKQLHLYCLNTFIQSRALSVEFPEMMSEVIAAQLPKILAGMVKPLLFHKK

[1] = molecular target: T2, Mineralocorticoid receptor (Homo sapiens, UniProt P08235); assay: Displacement of TAMRA-labeled dexamethasone from mineralocorticoid receptor (unknown origin) by fluorescence polarization assay
T2 sequence (P08235 whole entry): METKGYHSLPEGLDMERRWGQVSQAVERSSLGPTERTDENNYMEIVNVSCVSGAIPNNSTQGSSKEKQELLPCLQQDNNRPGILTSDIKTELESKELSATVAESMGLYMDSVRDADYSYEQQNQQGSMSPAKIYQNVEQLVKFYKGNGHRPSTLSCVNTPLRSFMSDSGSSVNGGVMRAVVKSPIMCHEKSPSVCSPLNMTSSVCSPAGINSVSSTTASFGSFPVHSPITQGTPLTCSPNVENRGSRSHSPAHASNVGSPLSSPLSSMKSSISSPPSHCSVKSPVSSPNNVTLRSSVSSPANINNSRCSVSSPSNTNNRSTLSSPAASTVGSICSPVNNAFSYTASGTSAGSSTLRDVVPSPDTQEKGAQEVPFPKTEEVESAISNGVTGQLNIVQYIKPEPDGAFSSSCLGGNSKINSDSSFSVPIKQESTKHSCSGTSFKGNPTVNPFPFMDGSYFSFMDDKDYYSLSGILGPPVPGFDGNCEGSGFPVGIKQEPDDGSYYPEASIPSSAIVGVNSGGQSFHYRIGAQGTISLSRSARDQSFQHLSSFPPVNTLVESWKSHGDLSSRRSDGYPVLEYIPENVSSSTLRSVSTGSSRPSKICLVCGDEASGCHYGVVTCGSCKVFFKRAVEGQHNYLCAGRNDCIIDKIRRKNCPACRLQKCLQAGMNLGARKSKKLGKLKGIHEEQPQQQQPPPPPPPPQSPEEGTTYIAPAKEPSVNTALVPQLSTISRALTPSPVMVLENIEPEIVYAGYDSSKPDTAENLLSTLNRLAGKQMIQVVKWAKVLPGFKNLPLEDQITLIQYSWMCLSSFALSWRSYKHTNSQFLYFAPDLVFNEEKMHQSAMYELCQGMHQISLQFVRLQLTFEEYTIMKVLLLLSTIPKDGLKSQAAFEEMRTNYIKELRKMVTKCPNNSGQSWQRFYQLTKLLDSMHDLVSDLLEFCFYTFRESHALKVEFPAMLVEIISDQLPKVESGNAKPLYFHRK

[2] = Oral bioavailability in Sprague-Dawley rat at 30 mg/kg; assay type: ADME, organism-based; conditions: in vivo
Mus musculus = assay: Toxicity in B10.RIII mouse assessed as triglyceride level in serum at 100 mg/kg, po qd for 5 weeks relative to control; assay type: organism-based; set-up: dose 100 mg/kg, route oral; conditions: in vivo, 840 h

IC50 (Progesterone receptor): 290 nM | IC50 [1]: 420 nM | bioavailability [2]: 64%
Compound: Cc1ccc(F)cc1C(C)(C)C[C@@](O)(Cc1cc2cnccc2[nH]1)C(C)(C)C
Activity (Mus musculus): 113%
